Test results as given in patent US8993542B2, “Methods of treating viral infections” (priority 2008, dated 2015).

System: HIV-1IIIB
Assay: Two-drug combination antiviral assay in CEM cells (CPE), MacSynergy II
Type: cell-based
Conditions: for Antagonism Volume, Result 1 / Antagonism Volume, Result 2 / Antagonism Volume, Result 3 / Mean Antagonism Volume (n = 3) / Mean Synergy Volume (n = 3) / Synergy Volume, Result 1 / Synergy Volume, Result 2 / Synergy Volume, Result 3: in combination with CMX157, CEM-SS cells, 95% confidence; for Interpretation of Antiviral Results (MacSynergy): two-drug combination (with CMX157; control d4T/RBV), CEM-SS cells

Structure (SMILES) | Antagonism Volume, Result 1 | Antagonism Volume, Result 2 | Antagonism Volume, Result 3 | Mean Antagonism Volume (n = 3) | Mean Synergy Volume (n = 3) | Synergy Volume, Result 1 | Synergy Volume, Result 2 | Synergy Volume, Result 3 | Interpretation of Antiviral Results (MacSynergy)
CC(C)Nc1cccnc1N1CCN(C(=O)c2cc3cc(NS(C)(=O)=O)ccc3[nH]2)CC1 [Delavirdine (DLV), delavirdine] | 0 nM^2 %, μM^2 % or nMμM % | 0 nM^2 %, μM^2 % or nMμM % | −2.58 nM^2 %, μM^2 % or nMμM % | 0 nM^2 %, μM^2 % or nMμM % | 72.9 nM^2 %, μM^2 % or nMμM % | 152 nM^2 %, μM^2 % or nMμM % | 68.4 nM^2 %, μM^2 % or nMμM % | 1.01 nM^2 %, μM^2 % or nMμM % | slightly synergistic
Nc1ccn([C@H]2CC[C@@H](CO)O2)c(=O)n1 [Zalcitabine (ddC), 2′,3′-dideoxycytidine] | 0 nM^2 %, μM^2 % or nMμM % | 0 nM^2 %, μM^2 % or nMμM % | −15.9 nM^2 %, μM^2 % or nMμM % | −5.29 nM^2 %, μM^2 % or nMμM % | 122 nM^2 %, μM^2 % or nMμM % | 154 nM^2 %, μM^2 % or nMμM % | 80.0 nM^2 %, μM^2 % or nMμM % | 131 nM^2 %, μM^2 % or nMμM % | highly synergistic
CC(C)(C)NC(=O)[C@@H]1C[C@@H]2CCCC[C@@H]2CN1C[C@@H](O)[C@H](Cc1ccccc1)NC(=O)[C@H](CC(N)=O)NC(=O)c1ccc2ccccc2n1 [Saquinavir (SQV), saquinavir] | −2.54 nM^2 %, μM^2 % or nMμM % | −0.81 nM^2 %, μM^2 % or nMμM % | 0 nM^2 %, μM^2 % or nMμM % | −1.12 nM^2 %, μM^2 % or nMμM % | 45.2 nM^2 %, μM^2 % or nMμM % | 123 nM^2 %, μM^2 % or nMμM % | 8.35 nM^2 %, μM^2 % or nMμM % | 3.93 nM^2 %, μM^2 % or nMμM % | 
Cc1c(O)cccc1C(=O)N[C@@H](CSc1ccccc1)[C@H](O)CN1C[C@H]2CCCC[C@H]2C[C@H]1C(=O)NC(C)(C)C [Nelfinavir (NFV), nelfinavir] | 0 nM^2 %, μM^2 % or nMμM % | 0 nM^2 %, μM^2 % or nMμM % | 0 nM^2 %, μM^2 % or nMμM % | 0 nM^2 %, μM^2 % or nMμM % | 80.9 nM^2 %, μM^2 % or nMμM % | 32.1 nM^2 %, μM^2 % or nMμM % | 85.1 nM^2 %, μM^2 % or nMμM % | 125 nM^2 %, μM^2 % or nMμM % | slightly synergistic
CC(C)(C)NC(=O)[C@@H]1CN(Cc2cccnc2)CCN1C[C@@H](O)C[C@@H](Cc1ccccc1)C(=O)N[C@H]1c2ccccc2C[C@H]1O [Indinavir (IDV), indinavir] | −0.56 nM^2 %, μM^2 % or nMμM % | 0 nM^2 %, μM^2 % or nMμM % | 0 nM^2 %, μM^2 % or nMμM % | −0.19 nM^2 %, μM^2 % or nMμM % | 53.0 nM^2 %, μM^2 % or nMμM % | 78.7 nM^2 %, μM^2 % or nMμM % | 62.7 nM^2 %, μM^2 % or nMμM % | 17.6 nM^2 %, μM^2 % or nMμM % | slightly synergistic
